Measured values from patent US20090269795A1, “Mutant alpha4betadelta GABAA receptor and methods of treating anxiety or irritability” (priority 2007, published 2009).

Legend:
α1β2δ receptors = target: T1, α1β2δ receptors (Rattus norvegicus, UniProt P62813+P63138); assay: Whole cell patch clamp of GABA-gated current, recombinant receptors in HEK-293 cells; format: cell-based, rat α1, rat β2, human δ; settings: 30 nM THP
T1 construct: expressed in transfected cells; host or cells: HEK-293
Excerpt: Recombinant receptors: Transfection—Plasmids obtained from S. Vicini (rat α1, α5, β2, β3 and γ2), P. Whiting (human α4 and δ) and N. L. Harrison (mouse α4) were propagated in E coli DH5α and prepared using Qiagen Maxi- or Midi-prep kits. (Rat, mouse and human α1, β2, β3 and γ2 subunits are identical or nearly identical.) All receptors were transfected at a 1:1:1 ratio, except α1β2γ2 (1:1:5)^12, α4βδ (5:1:5)^13 and α4β2γ2 (5:1:1). HEK-293 cells were maintained in medium (DMEM:Ham's F-12 1:1) supplemented with 10% fetal calf serum at 37° C. in a humid 5% CO2 atmosphere. Cells were transfected using calcium phosphate or Polyfect (Qiagen) and co-transfected with enhanced green fluorescent protein (ratio of DNA to eGFP was 6:1 or 10:1 depending on the DNA concentration) for visualization. α4-containing GABAA receptors required 2-3 d for maximal levels of expression; all other receptors were recorded 1-2 d after transfection. Because mouse α4 and human α4-containing receptors yielded the same results, the currents were averaged together.
Whole cell patch clamp recording—GABA-gated currents were recorded at room temperature (20-22° C.) at a holding potential of −50 mV^14. […] Currents were recorded using an Axopatch 1D amplifier (Axon Instruments) filtered at 2 kHz (four-pole Bessel filter) and detected at 10 kHz (pClamp 5.1). […]

α1β2γ2 receptors = target: T2, α1β2γ2 receptors (Rattus norvegicus, UniProt P62813+P63138); assay: as above; format: cell-based; settings: 30 nM THP
T2 construct: expressed in transfected cells; host or cells: HEK-293
Excerpt: Recombinant receptors: Transfection—Plasmids obtained from S. Vicini (rat α1, α5, β2, β3 and γ2), P. Whiting (human α4 and δ) and N. L. Harrison (mouse α4) were propagated in E coli DH5α and prepared using Qiagen Maxi- or Midi-prep kits. (Rat, mouse and human α1, β2, β3 and γ2 subunits are identical or nearly identical.) All receptors were transfected at a 1:1:1 ratio, except α1β2γ2 (1:1:5)^12, α4βδ (5:1:5)^13 and α4β2γ2 (5:1:1). HEK-293 cells were maintained in medium (DMEM:Ham's F-12 1:1) supplemented with 10% fetal calf serum at 37° C. in a humid 5% CO2 atmosphere.
The pipet solution contained (in mM): N-methyl-D-glucamine chloride 120, Cs4BAPTA 5 (Calbiochem), Mg-ATP 5, and an ATP regeneration system (20 mM Tris phosphocreatine and creatine kinase). Internal [Cl^−] or the holding potential were varied, using gluconate as the anion, to alter the direction of Cl^− flow, corrected for the junction potential.
HEK-293 cells were maintained in medium (DMEM:Ham's F-12 1:1) supplemented with 10% fetal calf serum at 37° C. in a humid 5% CO2 atmosphere.

T1 sequence (P62813 28-455): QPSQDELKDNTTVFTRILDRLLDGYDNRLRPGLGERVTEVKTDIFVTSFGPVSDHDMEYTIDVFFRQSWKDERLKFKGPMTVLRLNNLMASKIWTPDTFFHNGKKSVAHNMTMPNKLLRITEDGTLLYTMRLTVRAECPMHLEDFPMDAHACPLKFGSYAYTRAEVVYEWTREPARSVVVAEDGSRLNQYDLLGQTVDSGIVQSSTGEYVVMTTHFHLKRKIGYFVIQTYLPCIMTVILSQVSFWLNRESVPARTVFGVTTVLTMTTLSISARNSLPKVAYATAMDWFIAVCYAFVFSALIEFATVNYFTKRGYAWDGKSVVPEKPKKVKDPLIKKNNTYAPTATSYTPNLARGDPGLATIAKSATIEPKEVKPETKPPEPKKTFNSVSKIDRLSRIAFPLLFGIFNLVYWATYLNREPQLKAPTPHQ
T1 sequence (P63138 25-474 limits assumed): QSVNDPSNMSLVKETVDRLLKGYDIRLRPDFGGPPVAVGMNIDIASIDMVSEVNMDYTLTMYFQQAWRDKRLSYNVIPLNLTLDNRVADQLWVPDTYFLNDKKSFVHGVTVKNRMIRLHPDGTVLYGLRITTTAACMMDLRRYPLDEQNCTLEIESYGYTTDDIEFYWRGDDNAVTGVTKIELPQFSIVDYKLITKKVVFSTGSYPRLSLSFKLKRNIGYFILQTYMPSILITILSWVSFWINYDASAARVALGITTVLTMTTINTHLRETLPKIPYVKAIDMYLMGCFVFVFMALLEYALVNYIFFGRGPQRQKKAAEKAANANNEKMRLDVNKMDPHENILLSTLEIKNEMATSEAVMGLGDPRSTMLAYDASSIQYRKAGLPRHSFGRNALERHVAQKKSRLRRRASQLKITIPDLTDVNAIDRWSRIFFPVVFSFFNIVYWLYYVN
T1 sequence (O14764 25-452 partner): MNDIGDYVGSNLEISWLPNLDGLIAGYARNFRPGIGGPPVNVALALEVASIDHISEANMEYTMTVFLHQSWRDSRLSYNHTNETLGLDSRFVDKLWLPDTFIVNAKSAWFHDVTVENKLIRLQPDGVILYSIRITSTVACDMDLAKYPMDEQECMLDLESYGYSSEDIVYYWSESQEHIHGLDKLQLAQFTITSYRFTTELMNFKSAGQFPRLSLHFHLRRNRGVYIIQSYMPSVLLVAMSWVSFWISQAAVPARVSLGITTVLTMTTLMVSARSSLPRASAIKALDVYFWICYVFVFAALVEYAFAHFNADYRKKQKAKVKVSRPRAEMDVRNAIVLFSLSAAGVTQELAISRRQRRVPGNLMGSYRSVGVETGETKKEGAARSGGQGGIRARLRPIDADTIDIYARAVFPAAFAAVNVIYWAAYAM
T2 sequence (P62813 28-455): as the sequence (P62813 28-455) above
T2 sequence (P63138 25-474 limits assumed): as the sequence (P63138 25-474 limits assumed) above
T2 sequence (P18508 39-466 partner): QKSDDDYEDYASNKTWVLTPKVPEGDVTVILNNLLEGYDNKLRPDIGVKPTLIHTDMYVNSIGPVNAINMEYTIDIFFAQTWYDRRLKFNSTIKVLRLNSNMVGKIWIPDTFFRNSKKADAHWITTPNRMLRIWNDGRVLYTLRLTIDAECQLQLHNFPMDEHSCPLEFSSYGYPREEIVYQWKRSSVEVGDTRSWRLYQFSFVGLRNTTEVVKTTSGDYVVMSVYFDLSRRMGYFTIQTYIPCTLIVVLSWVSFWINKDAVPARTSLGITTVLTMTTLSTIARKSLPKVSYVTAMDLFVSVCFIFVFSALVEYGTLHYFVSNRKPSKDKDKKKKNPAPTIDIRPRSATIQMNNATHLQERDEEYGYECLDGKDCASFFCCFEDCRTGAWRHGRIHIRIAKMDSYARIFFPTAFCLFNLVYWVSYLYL

CC(=O)[C@H]1CC[C@H]2[C@@H]3CC[C@H]4C[C@H](O)CC[C@]4(C)[C@H]3CC[C@]12C [THP, 3α-OH-5α[β]-pregnan-20-one]
effect on outward current (α1β2δ receptors): either increased or had no effect
effect on outward current (α1β2γ2 receptors): either increased or had no effect
